Measured values from EP0314011A2, “Purine derivatives” (F. HOFFMANN-LA ROCHE AG, priority 1987, dated 1989).

system: HTLV III; assay: Anti-HIV activity: p24 antigen capture assay in HTLV III-infected C8166 cells; type: cell-based; conditions: concentration giving 50% protection; C8166 cells (human CD4+ T-lymphoblast line) infected with 10-fold TCD50 of virus; 72 h incubation at 37°C; viral protein 24 antigen in supernatant
Description: Die Aktivität der Purinderivate der vorliegenden Erfindung gegen HIV kann wie folgt nachgewiesen werden.
In diesem Versuch verwendet man HTLV III, gezüchtet in C8166-Zellen (eine menschliche CD4⁺ T-Lymphoblastenlinie), RPM1 1640 Medium mit Bicarbonatpuffer, Antibiotika und l0%igem fötalem Rinderserum. Eine Zellensuspension wird mit der 10-fachen TCD₅₀ des Virus infiziert. Man lässt 90 Minuten bei 37°C adsorbieren. Die Zellen werden mit dem Medium gewaschen. Der Versuch wird in 6 ml Gewebekulturröhrchen durchgeführt. Jedes Röhrchen enthält 2 x 10⁵ infizierte Zellen in 1,5 ml Medium. Es werden 15 µl einer Lösung der Substanz in wässrigem Medium oder in DMSO zugesetzt. Nach 72 Stunden Inkubation bei 37°C in einer feuchten 5% CO₂ enthaltenden Atmosphäre werden die Kulturen zentrifugiert. Ein aliquoter Teil des Ueberstandes wird solubilisiert und einem Antigenabfangversuch unterworfen unter Verwendung eines primären Antiserums mit besonderer Reaktivität gegen virales Protein 24 und eines Meerrettich-Peroxidase-Detektionssystems. Die Farbenerzeugung wird spektrophotometrisch gemessen und in Abhängigkeit der Konzentration der Testsubstanz dargestellt. Die einen 50%igen Schutz erzeugende Konzentration (IC₅₀) wird ermittelt. Die Resultate sind in der folgenden Tabelle angegeben: […]

Structure (SMILES) | IC50
Nc1nc(Cl)nc2c1ncn2[C@@H]1O[C@H](CO)C[C@@H]1F [Beispiel 1, 6-Amino-2-chlor-9-(2,3-dideoxy-2-fluor-β-D-threopentofuranosyl)-9H-purin] | 1000 nM
[N-]=[N+]=Nc1nc(N)c2ncn([C@@H]3O[C@H](CO)C[C@@H]3F)c2n1 [Beispiel 2, 6-Amino-2-azido-9-(2,3-dideoxy-2-fluor-β-D-threopentofuranosyl)-9H-purin] | 10000 nM
Nc1nc(N)c2ncn([C@@H]3O[C@H](CO)C[C@@H]3F)c2n1 [Beispiel 3, 2,6-Diamino-9-(2,3-dideoxy-2-fluor-β-D-threopentofuranosyl)-9H-purin] | 1000 nM
